Laboratory results: US20260191968A1, “PROTAC DEGRADERS OF MLLT1 AND/OR MLLT3” (DARK BLUE THERAPEUTICS LTD, priority 2024, published 2026)

Columns and labels:
MLLT1 = biological target: T1, MLLT1 (Homo sapiens, UniProt Q03111); experiment: MLLT1 degradation assay in MV4-11 cells (JESS chemiluminescent detection), three concentrations, 24 h; type: cell-based; conditions: with respect to DMSO control
T1 construct: host or cells: MV4-11
T1 sequence (Q03111 1-559): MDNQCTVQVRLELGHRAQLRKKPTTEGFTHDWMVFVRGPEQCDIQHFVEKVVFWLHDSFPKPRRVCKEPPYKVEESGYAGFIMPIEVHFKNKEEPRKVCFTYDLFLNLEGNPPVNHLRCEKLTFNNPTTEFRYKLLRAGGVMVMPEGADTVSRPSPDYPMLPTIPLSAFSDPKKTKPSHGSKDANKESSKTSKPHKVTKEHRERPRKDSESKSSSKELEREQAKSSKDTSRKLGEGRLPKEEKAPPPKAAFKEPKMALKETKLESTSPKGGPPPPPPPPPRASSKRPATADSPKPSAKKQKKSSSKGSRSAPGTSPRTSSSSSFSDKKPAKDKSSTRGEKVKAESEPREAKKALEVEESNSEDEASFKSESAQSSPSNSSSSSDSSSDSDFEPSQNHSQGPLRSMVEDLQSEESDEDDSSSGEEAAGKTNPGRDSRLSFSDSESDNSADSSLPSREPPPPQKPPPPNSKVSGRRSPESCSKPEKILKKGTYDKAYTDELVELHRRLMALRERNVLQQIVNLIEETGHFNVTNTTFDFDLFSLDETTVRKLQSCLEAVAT
Procedure, shortened: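 MV4-11 cells treated 24 h at 37° C, 5% CO2 with 1000, 100 and 10 nM compound (0.1% DMSO final). MLLT1 quantified by automated capillary chemiluminescent immunodetection; band peak area expressed as % degradation relative to DMSO control.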

MV4-11 cells = experiment: MV4-11 cellular proliferative assay, Assay Format B (CTG 2.0, 168 h); type: cell-based; conditions: Homo sapiens, 168 h (7 days), CTG 2.0, read-out: IC50 (MV4-11 cellular proliferative assay, Assay format B)
Procedure, shortened: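 MV4-11 cells seeded overnight in IMDM + 10% FBS, then exposed to 10-point, 3-fold dilutions from 1 uM or 100 nM top concentration (0.3% DMSO final) for 168 h at 37 °C. CTG 2.0 luminescence read; % viability vs DMSO control fitted by four-parameter logistic regression.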

Row | MLLT1% Degradation @ 0.01 μM (MLLT1) | MLLT1% Degradation @ 0.1 μM (MLLT1) | MLLT1% Degradation @ 1 μM (MLLT1) | IC50 (MV4-11 cells) | Compound
1 | A (Category A: A ≥ 75% degradation) | A (Category A: A ≥ 75% degradation) | A (Category A: A ≥ 75% degradation) | ≤ 100 nM | CN1CCC[C@@H]1c1cc2cnc(NC(=O)c3ccc(CCCC#Cc4cccc5c4CN(C4CCC(=O)NC4=O)C5=O)cn3)cc2[nH]1 (stereo partly drawn) [Example 197, 5-(5-(2-(2,6-dioxopiperidin-3-yl)-1-oxoisoindolin-4-yl)pent-4-yn-1-yl)-N-(2-((R)-1-methylpyrrolidin-2-yl)-1H-pyrrolo[3,2-c]pyridin-6-yl)picolinamide]
2 | A (Category A: A ≥ 75% degradation) | A (Category A: A ≥ 75% degradation) | A (Category A: A ≥ 75% degradation) | ≤ 100 nM | CN1CCC[C@@H]1c1cc2cnc(NC(=O)c3ccc(OCCC4CCN(c5cccc6c5CN(C5CCC(=O)NC5=O)C6=O)CC4)c(F)c3)cc2[nH]1 (stereo partly drawn) [Example 206, 4-(2-(1-(2-(2,6-dioxopiperidin-3-yl)-1-oxoisoindolin-4-yl)piperidin-4-yl)ethoxy)-3-fluoro-N-(2-((R)-1-methylpyrrolidin-2-yl)-1H-pyrrolo[3,2-c]pyridin-6-yl)benzamide]

Second part, the molecule before the results:

Row | Compound | MLLT1% Degradation @ 0.01 μM (MLLT1) | MLLT1% Degradation @ 0.1 μM (MLLT1) | MLLT1% Degradation @ 1 μM (MLLT1) | IC50 (MV4-11 cells)
3 | CN1CCC[C@@H]1c1cc2cnc(NC(=O)c3cnc(N4CCC(C#Cc5cccc6c5CN(C5CCC(=O)NC5=O)C6=O)CC4)cn3)cc2[nH]1 (stereo partly drawn) [Example 186, 5-(4-((2-(2,6-dioxopiperidin-3-yl)-1-oxoisoindolin-4-yl)ethynyl)piperidin-1-yl)-N-(2-((R)-1-methylpyrrolidin-2-yl)-1H-pyrrolo[3,2-c]pyridin-6-yl)pyrazine-2-carboxamide] | B (Category B: 50% ≤ B < 75% degradation) | A (Category A: A ≥ 75% degradation) | B (Category B: 50% ≤ B < 75% degradation) | ≤ 100 nM
4 | CN1CCC[C@@H]1c1[nH]c2cc(NC(=O)c3ccc(OCCC4CCN(c5cccc6c5CN(C5CCC(=O)NC5=O)C6=O)CC4)cc3F)ncc2c1Cl (stereo partly drawn) [Example 190, N-(3-chloro-2-((R)-1-methylpyrrolidin-2-yl)-1H-pyrrolo[3,2-c]pyridin-6-yl)-4-(2-(1-(2-(2,6-dioxopiperidin-3-yl)-1-oxoisoindolin-4-yl)piperidin-4-yl)ethoxy)-2-fluorobenzamide] | B (Category B: 50% ≤ B < 75% degradation) | A (Category A: A ≥ 75% degradation) | A (Category A: A ≥ 75% degradation) | ≤ 100 nM
5 | CN1CCC[C@@H]1c1[nH]c2cc(NC(=O)c3ccc(N4CCC(OCC5CCN(c6cccc7c6CN(C6CCC(=O)NC6=O)C7=O)CC5)CC4)nc3)ncc2c1Cl (stereo partly drawn) [Example 191, N-(3-chloro-2-((R)-1-methylpyrrolidin-2-yl)-1H-pyrrolo[3,2-c]pyridin-6-yl)-6-(4-((1-(2-(2,6-dioxopiperidin-3-yl)-1-oxoisoindolin-4-yl)piperidin-4-yl)methoxy)piperidin-1-yl)nicotinamide] | A (Category A: A ≥ 75% degradation) | A (Category A: A ≥ 75% degradation) | A (Category A: A ≥ 75% degradation) | ≤ 100 nM
6 | CN1CCC[C@@H]1c1cc2cnc(NC(=O)c3ccc(N4CCN(CCC5CCN(c6cccc7c6CN(C6CCC(=O)NC6=O)C7=O)CC5)CC4)nc3)cc2[nH]1 (stereo partly drawn) [Example 193, 6-(4-(2-(1-(2-(2,6-dioxopiperidin-3-yl)-1-oxoisoindolin-4-yl)piperidin-4-yl)ethyl)piperazin-1-yl)-N-(2-((R)-1-methylpyrrolidin-2-yl)-1H-pyrrolo[3,2-c]pyridin-6-yl)nicotinamide] | A (Category A: A ≥ 75% degradation) | A (Category A: A ≥ 75% degradation) | B (Category B: 50% ≤ B < 75% degradation) | ≤ 100 nM
7 | CN1CCC[C@@H]1c1cc2cnc(NC(=O)c3ccc(CN4CCN(CC5CCN(c6cccc7c6CN(C6CCC(=O)NC6=O)C7=O)CC5)CC4)cc3)cc2[nH]1 (stereo partly drawn) [Example 194, 4-((4-((1-(2-(2,6-dioxopiperidin-3-yl)-1-oxoisoindolin-4-yl)piperidin-4-yl)methyl)piperazin-1-yl)methyl)-N-(2-((R)-1-methylpyrrolidin-2-yl)-1H-pyrrolo[3,2-c]pyridin-6-yl)benzamide] | B (Category B: 50% ≤ B < 75% degradation) | A (Category A: A ≥ 75% degradation) | A (Category A: A ≥ 75% degradation) | ≤ 100 nM
8 | CN1CCC[C@@H]1c1cc2cnc(NC(=O)c3ccc(N4CCC(OC=C=Cc5cccc6c5CN(C5CCC(=O)NC5=O)C6=O)CC4)nc3)cc2[nH]1 (stereo partly drawn) [Example 195, 6-(4-((3-(2-(2,6-dioxopiperidin-3-yl)-1-oxoisoindolin-4-yl)propa-1,2-dien-1-yl)oxy)piperidin-1-yl)-N-(2-((R)-1-methylpyrrolidin-2-yl)-1H-pyrrolo[3,2-c]pyridin-6-yl)nicotinamide] | A (Category A: A ≥ 75% degradation) | B (Category B: 50% ≤ B < 75% degradation) | A (Category A: A ≥ 75% degradation) | ≤ 100 nM
9 | CN1CCC[C@@H]1c1cc2cnc(NC(=O)c3ccc(CCCc4ccc(-c5cccc6c5CN(C5CCC(=O)NC5=O)C6=O)cc4)cc3)cc2[nH]1 (stereo partly drawn) [Example 199, 4-(3-(4-(2-(2,6-dioxopiperidin-3-yl)-1-oxoisoindolin-4-yl)phenyl)propyl)-N-(2-((R)-1-methylpyrrolidin-2-yl)-1H-pyrrolo[3,2-c]pyridin-6-yl)benzamide] | A (Category A: A ≥ 75% degradation) | A (Category A: A ≥ 75% degradation) | A (Category A: A ≥ 75% degradation) | ≤ 100 nM
10 | CN1CCC[C@@H]1c1cc2cnc(NC(=O)c3ccc(OCCc4ccc(-c5cccc6c5CN(C5CCC(=O)NC5=O)C6=O)cc4)cc3F)cc2[nH]1 (stereo partly drawn) [Example 207, 4-(4-(2-(2,6-dioxopiperidin-3-yl)-1-oxoisoindolin-4-yl)phenethoxy)-2-fluoro-N-(2-((R)-1-methylpyrrolidin-2-yl)-1H-pyrrolo[3,2-c]pyridin-6-yl)benzamide] | A (Category A: A ≥ 75% degradation) | A (Category A: A ≥ 75% degradation) | A (Category A: A ≥ 75% degradation) | ≤ 100 nM
11 | CN1CCC[C@@H]1c1cc2cnc(NC(=O)c3ccc(OCCCC4CCN(c5cccc6c5CN(C5CCC(=O)NC5=O)C6=O)CC4)cc3F)cc2[nH]1 (stereo partly drawn) [Example 209, 4-(3-(1-(2-(2,6-dioxopiperidin-3-yl)-1-oxoisoindolin-4-yl)piperidin-4-yl)propoxy)-2-fluoro-N-(2-((R)-1-methylpyrrolidin-2-yl)-1H-pyrrolo[3,2-c]pyridin-6-yl)benzamide] | A (Category A: A ≥ 75% degradation) | A (Category A: A ≥ 75% degradation) | A (Category A: A ≥ 75% degradation) | ≤ 100 nM
